Values of other authors, collected in patent US6399785B1, “Multiply-substituted fullerenes” (C-Sixty, Inc., priority 1995, dated 2002).
Where two headings read alike, the source gives them in different places.

How the values were obtained:
HIV [1] = details: human PBMC acutely infected with HIV, in vitro
HIV [2] = details: H9 cells chronically infected with HIV, in vitro

bis (monosuccinimide) derivative of p,p′-bis (2-aminoethyl) diphenyl C60
antiviral activity (HIV [1]): showed antiviral activity
antiviral activity (HIV [2]): showed antiviral activity
